The text below walks through data of PMC5723097, “Molecular and functional characterization of ferredoxin NADP(H) oxidoreductase from Gracilaria chilensis and its complex with ferredoxin” (Biological Research, 2017).

The assay concerns T1, FNR^PBS (ferredoxin NADP(H) oxidoreductase).
T1 construct: gene petH; native enzyme in phycobilisome-enriched fraction; N-terminal peptides MAAVDKKK (1-8), VPINIFRPK (9-17); not recombinant
Kind of assay: diaphorase assay, NADPH oxidation at […] nm, Michaelis-Menten fit. In kind it is biochemical, Gracilaria chilensis. Conditions: 0.15 mM DCPIP as acceptor, 50 mM Tris-HCl pH 8, 1 mM Na2EDTA; phycobilisome-enriched fraction, high salt.

The Km is the substrate concentration at which the rate is half of its maximum. With `NC(=O)C1=CN([C@@H]2O[C@H](COP(=O)(O)OP(=O)(O)OC[C@H]3O[C@@H](n4cnc5c(N)ncnc54)[C@H](OP(=O)(O)O)[C@@H]3O)[C@@H](O)[C@H]2O)C=CC1` [NADPH], the Michaelis-Menten constant (Km) is 12.5 ± 1.8 µM.
